The values that follow come from patent US5767116A, “Bicyclic aromatic compounds as therapeutic agents” (Knoll Atkiengesellschaft, priority 1993, dated 1998).

The target in one assay is T1, 5-HT1A receptors (Rattus norvegicus, UniProt P19327).
T1 sequence (P19327 1-422): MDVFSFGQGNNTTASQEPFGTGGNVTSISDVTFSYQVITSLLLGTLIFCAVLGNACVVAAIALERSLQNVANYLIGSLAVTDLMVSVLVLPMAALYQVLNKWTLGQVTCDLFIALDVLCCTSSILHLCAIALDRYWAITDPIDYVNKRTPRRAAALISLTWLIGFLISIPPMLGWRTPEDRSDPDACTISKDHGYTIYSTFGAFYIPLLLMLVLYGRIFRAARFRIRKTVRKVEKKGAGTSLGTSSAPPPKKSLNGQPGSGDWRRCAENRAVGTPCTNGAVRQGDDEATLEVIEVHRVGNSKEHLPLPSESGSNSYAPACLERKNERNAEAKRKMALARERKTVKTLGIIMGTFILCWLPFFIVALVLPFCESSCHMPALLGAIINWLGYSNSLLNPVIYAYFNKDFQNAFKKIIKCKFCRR
Kind of assay: biochemical. The assay is classed as binding, rat (male Charles River CD). The note with it: for Ki: 25° C., 30 minutes. The procedure:
The pellet was rehomogenised in the same buffer, incubated at 37° C. for 10 minutes and centrifuged at 30,000 g at 4° C. for 10 minutes. […] Aliquots (400 μl; equivalent to 2.5 mg wet weight of tissue/tube) of this suspension were added to tubes containing the ligand (50 μl; 2 nM) and distilled water (50 μl; total binding) or 5-HT (50 μl; 10 µM; non-specific binding) or test compound (50 μl; at a single concentration of 10^-6 M or at 10 concentrations ranging from 10^-11 -10^-3 M). The ligand was [^3 H]8-hydroxy-2-(dipropylamino)tetralin([^3 H]8-OH-DPAT) and the mixture was incubated at 25° C. for 30 minutes before the incubation was terminated by rapid filtration.
(§1) The filters were punched out into vials, scintillation fluid added and radioactivity determined by liquid scintillation counting. The percentage displacement of specific binding of the tritiated ligand was calculated for the single concentration (10^-6 M) of test compound. Displacement curves were then produced for those compounds which displaced ≥50% of specific binding of the tritiated ligand at 10^-6 M using a range of concentrations of the compound. […] The inhibition coefficient Ki was then calculated using the formula [formula] in which [ligand] is the concentration of the tritiated ligand used and KD is the equilibrium dissociation constant for the ligand.

The target in another assay is T2, α2-adrenoceptors (Rattus norvegicus, UniProt P22909).
T2 sequence (P22909 1-465): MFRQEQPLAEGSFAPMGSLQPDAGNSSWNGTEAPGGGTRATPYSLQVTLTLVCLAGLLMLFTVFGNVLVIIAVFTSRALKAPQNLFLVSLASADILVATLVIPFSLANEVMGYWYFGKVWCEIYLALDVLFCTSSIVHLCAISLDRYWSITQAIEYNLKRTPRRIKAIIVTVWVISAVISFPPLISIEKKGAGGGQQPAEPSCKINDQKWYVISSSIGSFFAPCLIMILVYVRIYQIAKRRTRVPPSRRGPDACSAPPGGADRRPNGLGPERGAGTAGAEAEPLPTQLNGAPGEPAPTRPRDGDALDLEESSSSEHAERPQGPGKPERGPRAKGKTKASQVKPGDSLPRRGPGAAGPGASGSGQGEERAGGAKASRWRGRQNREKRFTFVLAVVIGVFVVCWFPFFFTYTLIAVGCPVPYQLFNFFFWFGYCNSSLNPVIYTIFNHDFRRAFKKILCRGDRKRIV
The experiment in a line: inhibition of tritiated ligand (tritiated idazoxan) binding to α2-adrenoceptors in vitro (frontal cortical tissue). Also on record: species or system rat (male Charles River CD). The note with it: for Ki: 0° C., 75 minutes, > from highest concentration which displaced ≤50% of the ligand; for inhibition at 1 µM: read-out: % displacement at 10^-6 M, α2, 10^-6 M, rat frontal cortical tissue, tritiated idazoxan. The procedure:
Frontal cortical tissue from the brains of male Charles River CD rats weighing between 150-250 g were homogenised in ice-cold 0.25M sucrose (1:30 w/v) and centrifuged at 1,000 g at 4° C. for 12 minutes. The supernatant was stored on ice and the pellet was rehomogenised in 0.25M sucrose (1:15 w/v) and centrifuged at 850 g at 4° C. for 12 minutes. Combined supernatants were diluted with 5 mM Tris-HCl (pH 7.5) containing 0.5M ethylenediamine tetraacetic acid (EDTA) readjusted to pH 7.5 (at 25° C.) with 1M sodium hydroxide to 1:80 w/v, and centrifuged at 30,000 g at 4° C. for 10 minutes. The resulting pellet was resuspended in 5 mM Tris-HCl (pH 7.5) containing 5.68 mM L-ascorbic acid and 5 mM EDTA readjusted to pH 7.5 (at 25° C.) with 1M sodium hydroxide, and centrifuged at 30,000 g for 10 minutes. The final pellet was resuspended in 50 mM Tris-HCl (pH 7.5) containing 5.68 mM L-ascorbic acid and 5 mM EDTA (equivalent to 12.5 mg wet weight of tissue/ml) and used immediately in the binding assay. Aliquots (400 μl; equivalent to 5 mg wet weight of tissue/tube) of this suspension were added to tubes containing the ligand (50 μl; 1 nM) and distilled water (50 μl; total binding) or phentolamine (50 μl; 5 μM; non-specificbinding) or test compound (50 μl; at a single concentration of 10^-6 M or at 10 concentrations ranging from 10^-11 -10^-3 M). The ligand was tritiated idazoxan ((1,4-[6,7(n)-^3 H]benzodioxan-2-yl)-2-imidazoline hydrochloride) and the mixture was incubated at 0° C. for 75 minutes before the incubation was terminated by rapid filtration.
as §1, with “The filters were washed with ice-cold Tris-HCl buffer and dried. The filters” for “The filters”

Another assay has as its target D2 dopamine receptors (Rattus norvegicus, UniProt P61169). Kind of assay: biochemical. The assay is classed as binding, rat (male Charles River CD).
The target in another assay is α1-adrenoceptors. Kind of assay: inhibition of tritiated ligand ([7-methoxy-^3 H]prazosin) binding to α1-adrenoceptors in vitro (whole cortical tissue). The note with it: rat whole cortical tissue; for Ki: 30° C., 30 minutes, > from highest concentration which displaced ≤50% of the ligand; for % displacement at 10^-6 M, α1: 30 min, 1 µM. Also on record: species or system rat (male Charles River CD). As for the experimental part:
The supernatant was centrifuged at 30,000 g at 4° C. for 10 minutes. […] Aliquots (400 μl; equivalent to 5 mg wet weight of tissue/tube) of this suspension were added to tubes containing the ligand (50 μl; 0.1 nM) and distilled water (50 μl; total binding) or phentolamine (50 μl; 5 μM; non-specific binding) or test compound (50 μl; at a single concentration of 10^-6 M or at 10 concentrations ranging from 10^-11 -10^-3 M). The ligand was [7-methoxy-^3 H]prazosin and the mixture was incubated at 30° C. for 30 minutes before the incubation was terminated by rapid filtration.
as §1

The mark [1] stands for this setting: rat hippocampal tissue, [^3 H]8-OH-DPAT.
The mark [2] stands for this setting: rat frontal cortical tissue, tritiated idazoxan.
[3] abbreviates: rat striatal tissue, tritiated (S)-sulpiride, 4° C., 40 minutes.
[4] abbreviates: 10^-6 M, rat hippocampal tissue, [^3 H]8-OH-DPAT, read-out: % displacement at 10^-6 M, 5-HT1A.
[5] abbreviates: read-out: % displacement at 10^-6 M, 5-HT1A, 10^-6 M, rat hippocampal tissue, [^3 H]8-OH-DPAT.

Structures can show the parent of a compound that is named as a salt. Where two headings read alike, the source gives them in different places.

Sequence of D2 dopamine receptors (P61169 whole entry): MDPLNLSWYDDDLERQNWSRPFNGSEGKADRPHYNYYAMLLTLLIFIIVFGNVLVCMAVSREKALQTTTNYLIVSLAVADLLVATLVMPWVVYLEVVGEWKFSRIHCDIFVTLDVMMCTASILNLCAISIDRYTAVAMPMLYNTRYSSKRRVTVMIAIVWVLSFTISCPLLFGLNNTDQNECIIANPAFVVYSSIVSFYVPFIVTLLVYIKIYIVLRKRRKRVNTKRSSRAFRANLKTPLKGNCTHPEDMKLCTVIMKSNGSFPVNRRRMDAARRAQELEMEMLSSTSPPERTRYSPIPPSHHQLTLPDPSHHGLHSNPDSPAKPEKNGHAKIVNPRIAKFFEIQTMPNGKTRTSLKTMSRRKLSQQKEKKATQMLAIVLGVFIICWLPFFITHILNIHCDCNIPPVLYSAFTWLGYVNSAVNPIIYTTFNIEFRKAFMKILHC

In general, Ki refers to the dissociation constant of the complex between target and ligand, obtained from inhibition or displacement. A high value points to lower affinity. Regarding `c1ccc(N2CCC(CNCC3COc4ccccc4O3)CC2)nc1` (stereo not drawn) [Example 5, N-(1,4-benzodioxan-2-ylmethyl)-1-[1-(pyrid-2-yl)piperid-4-yl]methylamine dihydrochloride], the Ki worked out at 22.6 nM on 5-HT1A receptors (setting [1]), 50 nM on α2-adrenoceptors (setting [2]), 29 nM on D2 dopamine receptors (setting [3]) and 79 nM at α1-adrenoceptors.

For `COc1ccccc1N1CCC(CNCC2COc3cccc(OC)c3O2)CC1` (stereo not drawn) [Example 6, N-(8-methoxy-1,4-benzodioxan-2-ylmethyl)-1-[1-(2-methoxyphenyl)piperid-4-yl]methylamine dihydrochloride], the results for the inhibition constant (Ki) at 5-HT1A receptors (setting [1]), at D2 dopamine receptors (setting [3]) and at α1-adrenoceptors were 252 nM, 8.5 nM and 3.7 nM, respectively. The inhibition at 1 µM on α2-adrenoceptors was 92%.

Turning to `FC(F)(F)c1cccnc1NCCNCC1COc2ccccc2O1` (stereo not drawn) [Example 8, N-(1,4-benzodioxan-2-ylmethyl)-N'-[3-(trifluoromethyl)-2-pyridyl)]-ethanediamine dihydrochloride], the Ki worked out at 18.8 nM at 5-HT1A receptors (setting [1]), 70 nM on α2-adrenoceptors (setting [2]), 110 nM at D2 dopamine receptors (setting [3]) and 14 nM on α1-adrenoceptors.

Consider `COc1cccc2c1CC(CNCC1CCN(c3ncccn3)CC1)CC2` (stereo not drawn) [Example 9, N-(8-methoxy-1,2,3,4-tetrahydronaphth-2-ylmethyl)-1-[1-(pyrimidin-2-yl)piperid-4-yl]methylamine 1.1 hydrochloride], for which the Ki on 5-HT1A receptors (setting [1]) is 8.2 nM; at α2-adrenoceptors (setting [2]) it was over 500 nM; on D2 dopamine receptors (setting [3]), 46.4 nM; at α1-adrenoceptors it was 34 nM.

For the compound `Oc1cccc2c1CC(CNCC1CCN(c3ncccn3)CC1)CC2` (stereo not drawn) [Example 10, 7-{N-[1-(pyrimidin-2-yl)piperid-4-ylmethyl}-aminomethyl)-5,6,7,8-tetrahydronaphth-1-ol dihydrobromide], the Ki was 7.7 nM on 5-HT1A receptors (setting [1]), over 500 nM at α2-adrenoceptors (setting [2]), 310 nM on D2 dopamine receptors (setting [3]) and 339 nM at α1-adrenoceptors.

Take `COc1cccc2c1CC(CNCC1CCN(c3ncccn3)CC1)CO2` (stereo not drawn) [Example 11, N-(5-methoxy-3,4-dihydro-2H-1-benzopyran-3-ylmethyl)-1-(1-(pyrimidin-2-yl)piperid-4-yl]methylamine monofumarate]: the inhibition constant Ki on 5-HT1A receptors (setting [1]) is 14.7 nM; on α2-adrenoceptors (setting [2]), over 500 nM; at D2 dopamine receptors (setting [3]), 12.9 nM; on α1-adrenoceptors it was 31 nM.

Regarding `COc1ccccc1NCCCNCC1COc2cccc(OC)c2O1.O=C(O)/C=C\C(=O)O` (stereo not drawn) [Example 17, N-(8-methoxy-1,4-benzodioxan-2-ylmethyl)-N'-(2-methoxyphenyl)-1,3-propanediamine maleate], the inhibition at 1 µM at 5-HT1A receptors (setting [4]) came out at 99%. Besides, the Ki on α2-adrenoceptors (setting [2]) is over 500 nM; on D2 dopamine receptors (setting [3]), 4.3 nM. Further, the “% displacement at 10^-6 M, α1” value in the assay with α1-adrenoceptors was 93%.

Consider `COc1ccccc1N1CCC(CNCC2COc3cc(Cl)c(Cl)cc3O2)CC1` (stereo not drawn) [Example 21, N-(6,7-dichloro-1,4-benzodioxan-2-ylmethyl)-1-[1-(2-methoxyphenyl)piperid-4-yl]methylaminehydrochloride], for which the inhibition at 1 µM on 5-HT1A receptors (setting [4]) was found to be 74%; at D2 dopamine receptors (10^-6 M, rat striatal tissue, tritiated (S)-sulpiride, read-out: % displacement at 10^-6 M, D2) it was 104%. The Ki on α2-adrenoceptors (setting [2]) and at α1-adrenoceptors was over 500 nM in each case.

Take `Cl.Clc1ccccc1N1CCC(CNCC2COc3ccccc3O2)CC1` (stereo not drawn) [Example 22, N-(1,4-benzodioxan-2-ylmethyl)-1-[1-(2-chlorophenyl)piperid-4-yl]methylamine hydrochloride]: the inhibition at 1 µM on 5-HT1A receptors (setting [5]) was determined as 95%; on α2-adrenoceptors, 63%. The inhibitory constant (Ki) at D2 dopamine receptors (setting [3]) was 43.5 nM. Further, the “% displacement at 10^-6 M, α1” value in the assay on α1-adrenoceptors came out at 71%.

As for `COc1ccccc1N1CCC(CNCC2COc3ccc4ccccc4c3O2)CC1` (stereo not drawn) [Example 24, 1-[1-(2-methoxyphenyl)piperid-4-yl]-N-(naphtho[1,2-b]dioxan-2-ylmethyl) methylamine hydrochloride 1.3 hydrate], the inhibition at 1 µM at 5-HT1A receptors (setting [4]) was found to be 97%. For the same compound, the inhibition constant Ki at α2-adrenoceptors (setting [2]) was over 500 nM; on D2 dopamine receptors (setting [3]), 81.3 nM; at α1-adrenoceptors, over 500 nM.

For the compound `COc1cccc2c1OC(CNCC1CCN(c3cccc4c3OCC4)CC1)CO2.Cl` (stereo not drawn) [Example 25, 1-[1-(2,3-dihydrobenzo[b]furan-7-yl)piperid-4-yl]-N-(8-methoxy-1,4-benzodioxan-2-ylmethyl) methylamine hydrochloride], the inhibition at 1 µM at 5-HT1A receptors (setting [5]) is 101%; at α2-adrenoceptors it was 96%. The same compound yielded an inhibition constant (Ki) at D2 dopamine receptors (setting [3]) of 20.9 nM. Further, the “% displacement at 10^-6 M, α1” value in the assay on α1-adrenoceptors is 99%.

For “N-(5-fluoro-1,4-benzodioxan-2-ylmethyl)-1-[1-(2-methoxyphenyl) piperid-4-yl]methylamine hydrochloride and N-(8-fluoro-1,4-benzodioxan-2-ylmethyl)-1-[1-(2-methoxyphenyl) piperid-4-yl]methylamine hydrochloride [Example 23]”, the “% displacement at 10^-6 M, 5-HT1A” value at 5-HT1A receptors (10^-6 M, rat hippocampal tissue, [^3 H]8-OH-DPAT) was 92%. The “% displacement at 10^-6 M, α2” value at α2-adrenoceptors (10^-6 M, rat frontal cortical tissue, tritiated idazoxan, 1 µM) stood at 75%. In addition, the Ki on D2 dopamine receptors was found to be 43 nM. For the same compound, the “% displacement at 10^-6 M, α1” value in the assay with α1-adrenoceptors stood at 92%.
